The source of these data is patent US10357474B2, “Preparation and use of a composition for prevention and mitigation of the effects of radiation” (BioVentures, LLC, priority 2013, dated 2019).

The test system of assay [1] is H9c2 heart cardiomyocytes. The assay can be described thus: Morphology assay of cardiomyocytes exposed to H2O2. The assay is classed as cell-based, rat. The method, then:
FIG. 3 is a set of photographs showing the cardiomyocytes after the indicated treatments. H9C2 heart cardiomyocytes were treated with 5 μM DT3 or 5 μM DG-3 or vehicle control (DMSO) overnight. Cells were then exposed to H2O2 for 4 h. Morphological changes were recorded under an inverted microscope.
(§1) DG-3, provided herein, is a standardized extract derived from annatto seeds that contains only […] and GT3. Because radiation-induced mitochondrial damage and oxidative stress impacts several critical biologic parameters such as DNA damage repair and stem cell fate, in this research we have compared the effects of DT3, GT3, and DG-3 against radiation induced mitochondrial dysfunction and oxidative stress. […] Furthermore, the same treatment preserved the cell viability and mitochondrial respiration in these cells when followed by oxidative insult via H2O2 treatment. Methods of making DG-3 and methods of using these compositions are provided herein.
H9c2 heart cardiomyocytes were treated with 5 μM DT3 or 5 μM DG-3 or vehicle control (DMSO) overnight. Cells were then exposed to 100 or 200 μM H2O2 for 4 h. Morphological changes were recorded under an inverted microscope.

The test system of assay [2] is Wistar rat liver microsomes. The assay can be described thus: Inhibition of TBHP induced lipid peroxidation in rat liver microsomes. Type of assay: biochemical. As to conditions: rat liver microsomes 1 mg/ml, 1 h pre-incubation at 37° C., 200 μM TBHP for 30 min; read-out: IC50 inhibition of lipid peroxidation (antioxidant potential). The procedure: Data are means±SEM of triplicate experiments. One of the most well-known properties of the vitamin E components is their ability to prevent lipid peroxidation. See Traber et al. (2011) Free Radic Biol Med 51(5):1000-1013. Briefly, the antioxidant activity of DG-3 was evaluated in rat liver microsomes by measuring inhibition of lipid peroxidation after TBHP ([…]) treatment. Wistar rat liver microsomes (BD Biosciences) were diluted in phosphate buffer, 0.1 M (pH 7.4), at the final protein concentration of 1 mg/ml. The microsomes were treated with different concentrations of DG-3 or DT3 (diluted with DMSO) and incubated at 37° C. for 1 hour before inducing lipid peroxidation with 200 μM TBHP (DMSO) for 30 min.

Assay [3] relates to H9C2 rat heart cardiomyocyte cells. The assay can be described thus: Total antioxidant capacity (copper reducing equivalents) of cardiomyocytes. The assay is classed as cell-based. As to conditions: 5 μM treatment.
Text: as §1

The subject of assay [4] is H9c2 heart cardiomyocytes. Kind of assay: Cellular bioenergetics measurements (oxygen consumption rate, XF96 Seahorse). The assay is classed as cell-based, rat. As to conditions: for Effect of H2O2 treatment on OCR after pre-treatment: 5 μM overnight pre-treatment. The procedure:
H9C2 heart cardiomyocytes were treated with 5 μM DT3 or 5 μM DG-3 or vehicle control (DMSO) overnight. Oxygen Consumption Rates (OCR) were measured and cellular bioenergetics profiles were determined using XF96 Seahorse Extracellular Flux Analyzer.
FIG. 6 is a graph showing the effects of hydrogen peroxide on the OCR of cardiomyocytes after the indicated treatments. H9C2 heart cardiomyocytes were exposed to 50 or 100 μM H2O2 for 4 h. Oxygen Consumption Rates (OCR) were measured and cellular bioenergetics profiles were determined using XF96 Seahorse Extracellular Flux Analyzer.
FIG. 7 is a graph showing the effects of 50 μM hydrogen peroxide on the OCR of cardiomyocytes after the indicated pre-treatment with DMSO (dimethylsulfoxide vehicle), DT3 or DG-3. Cellular bioenergetic profiles were determined using XF96 Seahorse Extracellular Flux Analyzer.
FIG. 8 is a graph showing the effects of 100 μM hydrogen peroxide on the OCR of cardiomyocytes after the indicated pre-treatment with DMSO (dimethylsulfoxide vehicle), DT3 or DG-3. Cellular bioenergetic profiles were determined using XF96 Seahorse Extracellular Flux Analyzer.
FIG. 9 is a graph showing the effects of 6 Gy ionizing radiation on the OCR of cardiomyocytes after the indicated pre-treatment with DMSO (dimethylsulfoxide vehicle). DT3 or DG-3. Cellular bioenergetic profiles were determined using XF96 Seahorse Extracellular Flux Analyzer 1 h following radiation exposure.
Cellular oxygen consumption rates (OCR) were measured at 37° C. using an XF96 extracellular analyzer (Seahorse Bioscience) as previously described (Ferrick D A, Neilson A, and Beeson C. Advances in measuring cellular bioenergetics using extracellular flux. Drug Discov Today 2008; 13: 268-274). Briefly, 10,000 H9C2 cells per well were plated. The cells were treated with 5 μM DT3 or 5 μM DG-3 or vehicle control (DMSO) overnight. Cells were then exposed to 0, 50 or 100 μM H2O2 for 4 h or 6 Gy ionizing radiation (IR). The media in the wells were changed to unbuffered Dulbecco's Modified Eagle Medium (DMEM) supplemented with 4 mM […] and incubated in a non-CO2 incubator for 1 h at 37° C. Three baseline measurements were acquired before injection of mitochondrial inhibitors or uncouplers. Readings were taken after sequential addition of oligomycin (10 μM), FCCP (10 μM), and rotenone/antimycin A (10 μM). OCR was calculated by the Seahorse XF96 software and represents an average of 12-16 measurements.

[5] abbreviates: 5 μM treatment followed by H2O2 treatment.

By IC50 is commonly meant the midpoint of a concentration-inhibition curve. For `CC(C)=CCC/C(C)=C/CC/C(C)=C/CC[C@]1(C)CCc2cc(O)cc(C)c2O1` [DT3, δ-tocotrienol], the “Morphological changes (cell damage) after H2O2” value in assay [1] (5 μM overnight pre-treatment, then 100 μM H2O2 for 4 h) is “damage is limited”. In assay [1] (5 μM overnight pre-treatment, then 200 μM H2O2 for 4 h), the “Morphological changes (cell monolayer) after H2O2” value is given as “still maintain a monolayer with only a few rounded cells”. Besides, in assay [1] (setting [5]), the “Cell viability after oxidative insult via H2O2” value is “preserved”. Besides, the half-inhibitory concentration (IC50) in assay [2] amounted to 2580 nM. Besides, the “Total antioxidant capacity (copper reducing equivalents)” value in assay [3] is “did not change”. Also, the “Effect of H2O2 treatment on OCR after pre-treatment” value is on record as “eliminated” in assay [4] (50 μM H2O2 for 4 h (FIG. 7)) and “significantly reduced” in assay [4] (100 μM H2O2 for 4 h (FIG. 8)). Further, the “Oxygen consumption rate (OCR) compared to controls” value in assay [4] (5 μM overnight, no H2O2 (FIG. 5)) is “modestly improved”. The “Mitochondrial respiration after oxidative insult via H2O2” value in assay [4] (setting [5]) is “preserved”.
